Test: Metastables test: challenge with cation exchange resin (Purolite C150), UV 274 nm peak
Format: physicochemical
From the text: FIGS. 3 and 4 show the relative and absolute stability of Applicant's disclosed TSA′ Gd Product as compared to two commercially available and frequently used MRI contrast agents Dotarem® and Clariscan®. The data shown in FIGS. 3 and 4 were obtained as follows. Exposing the product to a cation retaining resin, any free gadolinium ions in the sample are retained on the resin. Since the free gadolinium ions are continually removed, the equilibrium that would normally slow the decomposition of gadolinium DOTA metastable compounds is shifted toward decomposition. […] Gadolinium DOTA complex treated with xylenol orange has a characteristic peak at 274 nm in the ultraviolet spectrum. The amount of metastable gadolinium DOTA complex in the mixture can be inferred by measuring the decrease in this peak height with an ultraviolet spectrometer.
The test procedure used to obtain the foregoing results was as follows: • 1. Expose the resin to water for 24 hours. • 2. Measure the 274 nm peak height of the sample just prior to exposure to resin. This is the initial time point. • 3. Combine one equivalent of resin with one equivalent of the sample and agitate. • 4. […]
A metastable test is used to quantify ideal twisted square antiprismatic (TSA′) locked structures (TSA′ specification is greater than 99.5%). […]
The UV spectra for the time points were acquired over a range of 250-350 nm. The absorbance for the peak at 274 nm was corrected for changes in baseline by linearly interpolating the baseline from before and after the group of peaks around 274 nm (i.e., approximately from 270 to 280 nm) and subtracting the interpolated baseline value at 274 nm from the absorbance of the 274 nm peak maximum.
For the analysis of a time course experiment, it is useful to plot the corrected absorbances of the 274 nm peak as a percentage of the corrected absorbances of the 274 nm peak at the first time point versus time. […]

[1] = after resin purification process of Example 7

- ideal TSA' cages [1]: 99.98%
- non ideal (defective) cages [1]: 200 PPM
- stability compared to Dotarem and Clariscan (FIGS. 3-5) (cation retaining resin, 274 nm peak height, up to 120 minutes): more stable
SMILES: CNC[C@H](O)[C@@H](O)[C@H](O)[C@H](O)CO.O=C([O-])CN1CCN(CC(=O)[O-])CCN(CC(=O)O)CCN(CC(=O)[O-])CC1.[Gd+3] [TSA′ Gd Product, gadoterate meglumine]

Reference: patent publication US20250041460A1, “LANTHANIDE-BASED CONTRAST AGENTS HAVING IMPROVED STABILITY AND METHODS FOR THEIR PRODUCTION AND PURIFICATION” (Inventure, LLC, priority 2023, published 2025)
